Several values for one entry are separate records, joined by “and”; a condition that tells them apart may be missing. Equal values may be shown once. Toxic doses and inconclusive results are not listed.
Test system: P388 leukemia ip, CD2F1 mice, survival T/C
Test: NCI In Vivo Anticancer Drug Screen. Data for tumor model P388 Leukemia (intraperitoneal) in CD2F1 (CDF1) mice
Conditions: endpoint: median survival time, higher = longer survival
How it was run: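 Mice carrying the transplanted tumor received test compound or vehicle. Survival was recorded in each group, and the value is the treated-group measurement divided by that of the vehicle-treated control group.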

[1] = dose: 60.0 mg/kg/injection, schedule: Q01DX005 (ip), vehicle: saline with Tween-80
[2] = dose: 120.0 mg/kg/injection, schedule: Q01DX005 (ip), vehicle: saline with Tween-80
[3] = dose: 240.0 mg/kg/injection, schedule: Q01DX005 (ip), vehicle: saline with Tween-80
[4] = dose: 50.0 mg/kg/injection, schedule: Q01DX005 (ip), vehicle: saline with Tween-80
[5] = dose: 100.0 mg/kg/injection, schedule: Q01DX005 (ip), vehicle: saline with Tween-80
[6] = dose: 200.0 mg/kg/injection, schedule: Q01DX005 (ip), vehicle: saline with Tween-80
[7] = dose: 25.0 mg/kg/injection, schedule: Q01DX009 (ip), vehicle: saline with Tween-80

CC(=O)c1cc[n+](Cc2cc3ccccc3nc2Br)cc1
T/C (dose: 12.5 mg/kg/injection, schedule: Q04DX002 (ip), vehicle: saline): 101 % of control | T/C (dose: 25.0 mg/kg/injection, schedule: Q04DX002 (ip), vehicle: saline): 102 % of control | T/C (dose: 50.0 mg/kg/injection, schedule: Q04DX002 (ip), vehicle: saline): 101 % of control

O=[n+]1c2c(n([O-])c3ccccc31)C(Br)CCCC2Br (configuration not stated)
T/C [1]: 100 % of control | T/C [2]: 95 % of control | T/C [3]: 89 % of control

O=C(CN1CCN(c2ccccc2)CC1)n1ccnc1
T/C [1]: 95 % of control | T/C [2]: 97 % of control | T/C [3]: 100 % of control

CN(C)c1ccc(C2NC(C(=O)O)CS2)cc1 (configuration not stated)
T/C (dose: 50.0 mg/kg/injection, schedule: Q01DX009 (ip), vehicle: suspension in saline): 91 % of control | T/C (dose: 100.0 mg/kg/injection, schedule: Q01DX009 (ip), vehicle: suspension in saline): 100 % of control | T/C (dose: 200.0 mg/kg/injection, schedule: Q01DX009 (ip), vehicle: suspension in saline): 100 % of control

O=C1CCCC2OC12 (configuration not stated)
T/C (dose: 100.0 mg/kg/injection, schedule: Q04DX002 (ip), vehicle: saline): 110 % of control | T/C (dose: 200.0 mg/kg/injection, schedule: Q04DX002 (ip), vehicle: saline): 112 % of control

CCCCCCCCCCCCC1=NCC[N+]1(CCO)CC(O)COc1cc(Cl)c(Cl)cc1Cl (configuration not stated)
T/C (dose: 12.5 mg/kg/injection, schedule: Q01DX009 (ip), vehicle: saline): 105 % of control | T/C (dose: 25.0 mg/kg/injection, schedule: Q01DX009 (ip), vehicle: saline): 105 % of control | T/C (dose: 50.0 mg/kg/injection, schedule: Q01DX009 (ip), vehicle: saline): 102 % of control and 95 % of control | T/C (dose: 100.0 mg/kg/injection, schedule: Q01DX009 (ip), vehicle: saline): 90 % of control

Cc1nn(C(=O)c2cccnc2)c(-c2ccccc2)c1N=Nc1ccc(S(=O)(=O)Nc2ncccn2)cc1
T/C [4]: 89 % of control | T/C [5]: 88 % of control

CCn1c2ccccc2c2cc(NC(=O)N3CCCCC3)ccc21
T/C [4]: 95 % of control | T/C [5]: 95 % of control | T/C [6]: 90 % of control

N#Cc1ccc([N+](=O)[O-])o1
T/C (dose: 12.5 mg/kg/injection, schedule: Q01DX009 (ip), vehicle: saline with Tween-80): 100 % of control | T/C [7]: 90 % of control | T/C (dose: 50.0 mg/kg/injection, schedule: Q01DX009 (ip), vehicle: saline with Tween-80): 95 % of control

COc1cccc2c1C(=O)c1c(O)c3c(c(O)c1C2=O)C[C@@](O)(C(=O)CO)C[C@@H]3OC1CC(OC(C)=O)C(OC(C)=O)C(C)O1 (some centres not stated)
T/C (dose: 3.13 mg/kg/injection, schedule: Q04DX003 (ip), vehicle: distilled water + Tween-80): 99 % of control and 123 % of control | T/C (dose: 6.25 mg/kg/injection, schedule: Q04DX003 (ip), vehicle: distilled water + Tween-80): 123 % of control | T/C (dose: 12.5 mg/kg/injection, schedule: Q04DX003 (ip), vehicle: distilled water + Tween-80): 163 % of control | T/C (dose: 25.0 mg/kg/injection, schedule: Q04DX003 (ip), vehicle: distilled water + Tween-80): 185 % of control and 192 % of control | T/C (dose: 50.0 mg/kg/injection, schedule: Q04DX003 (ip), vehicle: distilled water + Tween-80): 211 % of control and 269 % of control

N/N=C1\c2ccccc2-c2cccc(N)c21
T/C [1]: 102 % of control | T/C [2]: 112 % of control | T/C [3]: 99 % of control

N#CC1Oc2ccccc2N1C(=O)c1ccccc1 (configuration not stated)
T/C [4]: 101 % of control | T/C [5]: 102 % of control | T/C [6]: 90 % of control

CN(/N=C/c1ccccc1)c1nnnn1-c1ccccc1
T/C (dose: 50.0 mg/kg/injection, schedule: Q01DX005 (ip), vehicle: saline + Tween-80 + alcohol): 103 % of control | T/C (dose: 100.0 mg/kg/injection, schedule: Q01DX005 (ip), vehicle: saline + Tween-80 + alcohol): 97 % of control | T/C (dose: 200.0 mg/kg/injection, schedule: Q01DX005 (ip), vehicle: saline + Tween-80 + alcohol): 89 % of control

CC(=O)OCC1OC(n2cnc3c2N=CN2C(CCl)=CC(=O)NC32)C(OC(C)=O)C1OC(C)=O (configuration not stated)
T/C (dose: 100.0 mg/kg/injection, schedule: Q01DX001 (ip), vehicle: saline with Tween-80): 103 % of control | T/C (dose: 200.0 mg/kg/injection, schedule: Q01DX001 (ip), vehicle: saline with Tween-80): 103 % of control | T/C (dose: 400.0 mg/kg/injection, schedule: Q01DX001 (ip), vehicle: saline with Tween-80): 110 % of control

CN(C)c1cc(N(C)C)c2cc(C#N)ccc2n1
T/C (dose: 50.0 mg/kg/injection, schedule: Q01DX009 (ip), vehicle: Klucel (hydroxypropylcellulose) (HPC)): 99 % of control | T/C (dose: 100.0 mg/kg/injection, schedule: Q01DX009 (ip), vehicle: Klucel (hydroxypropylcellulose) (HPC)): 98 % of control | T/C (dose: 200.0 mg/kg/injection, schedule: Q01DX009 (ip), vehicle: Klucel (hydroxypropylcellulose) (HPC)): 107 % of control

CC(=Nc1ccccc1)C1=C(O)C(Cc2ccccc2)NC1=O (configuration not stated)
T/C [7]: 106 % of control

— PubChem BioAssay AID330 (DTP/NCI, 2004)
